From patent US8629148B2, “Substituted oxindole-derivatives and the use thereof for the treatment of vasopressin-dependent illnesses” (AbbVie Deutschland GmbH & Co. KG, priority 2007, dated 2014)

Legend:
[1] = molecular target: T1, recombinant human oxytocin receptors (Homo sapiens, UniProt P30559); experiment: Oxytocin receptor binding assay (3H-oxytocin, HEK-293 cells); details: selectivity quotient, human OT vs human V1b
T1 construct: expressed in transfected cells; host or cells: HEK-293, transient expression; lysed and homogenized cells
T1 sequence (P30559 1-389): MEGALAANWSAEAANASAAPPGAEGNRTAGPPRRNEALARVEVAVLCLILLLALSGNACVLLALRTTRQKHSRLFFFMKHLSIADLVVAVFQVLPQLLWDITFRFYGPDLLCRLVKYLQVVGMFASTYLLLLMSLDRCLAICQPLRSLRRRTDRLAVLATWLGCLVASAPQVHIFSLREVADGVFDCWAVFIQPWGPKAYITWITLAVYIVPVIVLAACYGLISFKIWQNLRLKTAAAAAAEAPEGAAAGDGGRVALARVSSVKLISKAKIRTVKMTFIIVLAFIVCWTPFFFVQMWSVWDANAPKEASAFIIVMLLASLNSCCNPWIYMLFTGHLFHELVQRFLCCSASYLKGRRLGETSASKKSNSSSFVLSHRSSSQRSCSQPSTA
Description: The residue was taken up in ice-cold lysis buffer (50 mM Tris-HCl, 10% glycerol, pH 7.4 and Roche complete protease inhibitor) and subjected to an osmotic shock at 4° C. for 20 minutes. The lyzed cells were then centrifuged at 750×g at 4° C. for 20 minutes, the residue was taken up in incubation buffer, and aliquots of 10^7 cells/ml were prepared. The aliquots were frozen at −80° C. until used.
On the day of the experiment, the cells were thawed, diluted with incubation buffer and homogenized using a Multipette Combitip (Eppendorf, Hamburg). […] Triplicate determinations were set up. Bound and free radioligand were separated by filtration under vacuum with Whatman GF/B glass fiber filters with the aid of a Skatron cell harvester 7000. The bound radioactivity was determined by liquid scintillation measurement in a Tricarb Beta counter, model 2000 or 2200CA (Packard).

[2] = molecular target: T2, human vasopressin V1b receptor (Homo sapiens, UniProt P47901); experiment: Vasopressin V1b receptor binding assay (3H-AVP displacement, CHO-K1 membranes)
T2 construct: expressed in transfected cells; host or cells: CHO-K1 (cell line hV1b_3H2_CHO), membranes
T2 sequence (P47901 1-424): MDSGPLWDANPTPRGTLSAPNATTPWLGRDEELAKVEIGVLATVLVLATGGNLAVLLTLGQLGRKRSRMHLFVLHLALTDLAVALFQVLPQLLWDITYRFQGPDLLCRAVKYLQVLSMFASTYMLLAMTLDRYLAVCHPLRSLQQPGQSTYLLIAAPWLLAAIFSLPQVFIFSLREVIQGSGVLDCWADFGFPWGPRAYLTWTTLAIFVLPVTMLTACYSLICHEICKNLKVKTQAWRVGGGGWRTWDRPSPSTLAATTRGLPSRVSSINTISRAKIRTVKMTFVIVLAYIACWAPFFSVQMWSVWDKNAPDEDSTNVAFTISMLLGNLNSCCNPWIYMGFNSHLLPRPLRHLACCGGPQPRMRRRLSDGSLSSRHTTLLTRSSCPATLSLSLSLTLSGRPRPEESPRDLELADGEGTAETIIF
Description: 1. Vasopressin V1b Receptor Binding Assay:
The substance concentration was further diluted 1:5 in the assay mixture (2% DMSO in the mixture).
All determinations were carried out as triplicate determinations.

[3] = molecular target: human vasopressin V1a receptor (Homo sapiens, UniProt P37288); experiment: Vasopressin V1a receptor binding assay (125I-AVP displacement, CHO-K1 membranes); details: selectivity quotient, human V1a vs human V1b
human vasopressin V1a receptor, sequence (P37288 whole entry): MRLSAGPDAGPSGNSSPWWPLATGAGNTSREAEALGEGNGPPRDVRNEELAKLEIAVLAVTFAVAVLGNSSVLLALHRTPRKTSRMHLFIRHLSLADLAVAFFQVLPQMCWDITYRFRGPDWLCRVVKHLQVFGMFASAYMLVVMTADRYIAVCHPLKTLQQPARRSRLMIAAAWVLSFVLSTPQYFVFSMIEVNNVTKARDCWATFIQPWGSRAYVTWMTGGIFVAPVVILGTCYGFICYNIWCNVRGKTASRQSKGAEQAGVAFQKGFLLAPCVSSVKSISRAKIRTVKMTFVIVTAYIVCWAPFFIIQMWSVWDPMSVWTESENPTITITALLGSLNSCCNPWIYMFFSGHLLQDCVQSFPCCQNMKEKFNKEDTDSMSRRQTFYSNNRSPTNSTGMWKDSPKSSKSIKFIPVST

Ki(h-OT)/Ki(h-V1b)* [1]	Ki [2]	Ki(h-V1a)/Ki(h-V1b)* [3]	Structure (SMILES)
+ (10-<25)	1 to 10 nM	+++ (>75)	CCOc1ncccc1C1(NCc2cccc(N3CCN(C)CC3)c2)C(=O)N(S(=O)(=O)c2ccc(OC)cc2)c2ccc(C#N)cc21 (stereo not drawn) [Example 43, 3-(2-Ethoxypyridin-3-yl)-1-(4-methoxyphenylsulfonyl)-3-[3-(4-methylpiperazin-1-yl)-benzylamino]-2-oxo-2,3-dihydro-1H-indole-5-carbonitrile]
+++ (>75)	1 to 10 nM	++ (25-75)	CCOc1ncccc1C1(Nc2ccc(N3CCN(C)CC3)cc2)C(=O)N(S(=O)(=O)c2ccc(OC)cc2)c2cc(F)c(C#N)cc21 (stereo not drawn) [Example 59, 3-(2-Ethoxypyridin-3-yl)-6-fluoro-1-(4-methoxyphenylsulfonyl)-3-[4-(4-methylpiperazin-1-yl)phenylamino]-2-oxo-2,3-dihydro-1H-indole-5-carbonitrile]
+++ (>75)	1 to 10 nM	+++ (>75)	CCOc1ncccc1C1(NCc2ccc(N3CCNCC3)cc2)C(=O)N(S(=O)(=O)c2ccc(OC)cc2)c2ccc(C#N)cc21 (stereo not drawn) [Example 30, 3-(2-Ethoxypyridin-3-yl)-1-(4-methoxyphenylsulfonyl)-2-oxo-3-(4-piperazin-1-yl-benzylamino)-2,3-dihydro-1H-indole-5-carbonitrile]
+++ (>75)	< 1 nM	+++ (>75)	CCOc1ncccc1C1(NCc2ccc(N3CCN(C)CC3)cc2)C(=O)N(S(=O)(=O)c2ccc(OC)cc2)c2cc(F)c(C#N)cc21 (stereo not drawn) [Example 33, 3-(2-Ethoxypyridin-3-yl)-6-fluoro-1-(4-methoxyphenylsulfonyl)-3-[4-(4-methylpiperazin-1-yl)benzylamino]-2-oxo-2,3-dihydro-1H-indole-5-carbonitrile]
++ (25-75)	10 to 100 nM	+ (10-<25)	CCOc1ncccc1C1(NCc2ccc(N3CCN(C)CC3)cc2)C(=O)N(S(=O)(=O)c2ccc(OC)cc2)c2cc(Cl)c(F)cc21 (stereo not drawn) [Example 13, 6-Chloro-3-(2-ethoxypyridin-3-yl)-5-fluoro-1-(4-methoxyphenylsulfonyl)-3-[4-(4-methylpiperazin-1-yl)benzylamino]-1,3-dihydroindol-2-one]
+++ (>75)	10 to 100 nM	+ (10-<25)	CCOc1ncccc1C1(NCc2ccc(N3CCN(C)CC3)cc2)C(=O)N(S(=O)(=O)c2ccccc2)c2ccc(C#N)cc21 (stereo not drawn) [Example 27, 1-Phenylsulfonyl-3-(2-ethoxypyridin-3-yl)-3-[4-(4-methylpiperazin-1-yl)benzylamino]-2-oxo-2,3-dihydro-1H-indole-5-carbonitrile]
+++ (>75)	10 to 100 nM	++ (25-75)	CCOc1ncccc1C1(NCc2ccc(N3CCN(C)CC3)cc2)C(=O)N(S(=O)(=O)c2ccc(Cl)cc2)c2ccc(C#N)cc21 (stereo not drawn) [Example 26, 1-(4-Chlorophenylsulfonyl)-3-(2-ethoxypyridin-3-yl)-3-[4-(4-methylpiperazin-1-yl)-benzylamino]-2-oxo-2,3-dihydro-1H-indole-5-carbonitrile]
+++ (>75)	1 to 10 nM	+++ (>75)	CCOc1ncccc1C1(NCc2ccc(N3CCN(C)CC3)cc2)C(=O)N(S(=O)(=O)c2ccc(OC)cc2)c2ccc(C#N)cc21 (stereo not drawn) [Example 16, 3-(2-Ethoxypyridin-3-yl)-1-(4-methoxyphenylsulfonyl)-3-[4-(4-methylpiperazin-1-yl)-benzylamino]-2-oxo-2,3-dihydro-1H-indole-5-carbonitrile]
+ (10-<25)	1 to 10 nM	+++ (>75)	CCOc1ncccc1C1(NCc2ccc(N3CCN(C)CC3)cc2)C(=O)N(S(=O)(=O)c2ccccc2OC)c2ccc(C#N)cc21 (stereo not drawn) [Example 24, 3-(2-Ethoxypyridin-3-yl)-1-(2-methoxyphenylsulfonyl)-3-[4-(4-methylpiperazin-1-yl)-benzylamino]-2-oxo-2,3-dihydro-1H-indole-5-carbonitrile]
++ (25-75)	1 to 10 nM	+ (10-<25)	CCOc1ncccc1C1(Nc2ccc(N3CCN(C)CC3)nc2)C(=O)N(S(=O)(=O)c2ccc(OC)cc2)c2ccc(I)cc21 (stereo not drawn) [Example 68, 3-(2-Ethoxypyridin-3-yl)-5-iodo-1-(4-methoxyphenylsulfonyl)-3-[6-(4-methylpiperazin-1-yl)-pyridin-3-ylamino]-1,3-dihydroindol-2-one]

Continued, molecule first:

Structure (SMILES)	Ki(h-OT)/Ki(h-V1b)* [1]	Ki [2]	Ki(h-V1a)/Ki(h-V1b)* [3]
CCOc1ncccc1C1(Nc2ccc(CN3CCN(C)CC3)cc2)C(=O)N(S(=O)(=O)c2ccc(OC)cc2OC)c2ccc(C#N)cc21 (stereo not drawn) [Example 74, 1-(2,4-Dimethoxyphenylsulfonyl)-3-(2-ethoxypyridin-3-yl)-3-[4-(4-methylpiperazin-1-ylmethyl)phenylamino]-2-oxo-2,3-dihydro-1H-indole-5-carbonitrile]	+++ (>75)	1 to 10 nM	+++ (>75)
CCOc1ncccc1C1(Nc2ccc(C(=O)N3CCN(C)CC3)cc2)C(=O)N(S(=O)(=O)c2ccc(OC)cc2OC)c2ccc(C#N)cc21 (stereo not drawn) [Example 73, 1-(2,4-Dimethoxyphenylsulfonyl)-3-(2-ethoxypyridin-3-yl)-3-[4-(4-methylpiperazin-1-carbonyl)phenylamino]-2-oxo-2,3-dihydro-1H-indole-5-carbonitrile]	++ (25-75)	10 to 100 nM	+++ (>75)
CCOc1ncccc1C1(NCc2cccc(N3CCN(C)CC3)c2)C(=O)N(S(=O)(=O)c2ccccc2OC)c2ccc(I)cc21 (stereo not drawn) [Example 41, 3-(2-Ethoxypyridin-3-yl)-5-iodo-1-(2-methoxyphenylsulfonyl)-3-[3-(4-methylpiperazin-1-yl)-benzylamino]-1,3-dihydroindol-2-one]	++ (25-75)	1 to 10 nM	++ (25-75)
CCOc1ncccc1C1(Nc2ccc(N3CCN(CC)CC3)cc2)C(=O)N(S(=O)(=O)c2ccc(OC)cc2)c2ccc(C#N)cc21 (stereo not drawn) [Example 57, 3-(2-Ethoxypyridin-3-yl)-3-[4-(4-ethylpiperazin-1-yl)phenylamino]-1-(4-methoxyphenylsulfonyl)-2-oxo-2,3-dihydro-1H-indole-5-carbonitrile]	+++ (>75)	10 to 100 nM	++ (25-75)
CCOc1ncccc1C1(OC(=O)c2ccc(N3CCN(C)CC3)cc2)C(=O)N(S(=O)(=O)c2ccc(OC)cc2)c2ccc(C#N)cc21 (stereo not drawn) [Example 2, 5-Cyano-3-(2-ethoxypyridin-3-yl)-1-(4-methoxyphenylsulfonyl)-2-oxo-2,3-dihydro-1H-indol-3-yl-4-(4-methylpiperazin-1-yl)benzoate]	++ (25-75)	1 to 10 nM	+++ (>75)
CCOc1ncccc1C1(Nc2ccc(CN3CCN(C)CC3)cc2)C(=O)N(S(=O)(=O)c2ccc(OC)cc2)c2ccc(C#N)cc21 (stereo not drawn) [Example 75, 3-(2-Ethoxypyridin-3-yl)-1-(4-methoxyphenylsulfonyl)-3-[4-(4-methylpiperazin-1-ylmethyl)-phenylamino]-2-oxo-2,3-dihydro-1H-indole-5-carbonitrile]	+++ (>75)	10 to 100 nM	++ (25-75)
CCOc1ncccc1C1(NCc2cccc(N3CCN(C)CC3)c2)C(=O)N(S(=O)(=O)c2ccc(OC)cc2OC)c2ccc(I)cc21 (stereo not drawn) [Example 38, 1-(2,4-Dimethoxyphenylsulfonyl)-3-(2-ethoxypyridin-3-yl)-5-iodo-3-[3-(4-methylpiperazin-1-yl)benzylamino]-1,3-dihydroindol-2-one]	+ (10-<25)	1 to 10 nM	+ (10-<25)
